Assay results as given in US10828370B2, “Selectin and ICAM/VCAM peptide ligand conjugates” (Purdue Research Foundation, priority 2014, dated 2020).

Legend:
[1] = tested on: Selectin (E-Selectin and S-Selectin); conditions: selectin-binding peptide, free sequence; literature reference; cited from earlier work
[2] = tested on: TNF-α stimulated endothelial cells (ECs); experiment: Relative binding affinity of EC-SEAL conjugates to endothelial cells (Streptavidin-HRP absorbance); type: cell-based; conditions: 3 μM treatments

Substance	IC50 [1]	relative binding to endothelial cells vs single receptor-binding conjugates (FIG. 4) [2]
IDLMQAR	~200 µM	–
IEL/DGE-10,10 (peptide 1 IELLQARGC; peptide 2 DGEATDGC)	–	greater binding
IELLQAR	~200 µM	–
QITWAQLWNMMK	~0.16 µM	–
